Test results published in patent US6500950B1, “Benzylidenepyrazolones, their preparation and use” (BASF Aktiengesellschaft, priority 1997, dated 2002).

Key:
Format in all cases: in vivo
Zea mays = assay: Post-emergence greenhouse experiment, damage to useful plant; conditions: post-emergence rate 0.125 or 0.0≅kg/ha of a.s., scale 0 to 100
From the text: (§1) The seeds of the test plants were sown separately for each species. For the post-emergence treatment, the test plants were first grown to a plant height of 3 to 15 cm, depending on the plant habit, and only then treated with the active compounds which had been suspended or emulsified in water. The test plants for this purpose were either sown directly and grown in the same containers, or they were first grown separately as seedlings and transplanted into the test containers a few days prior to treatment. The rate of application for the post-emergence treatment was 0.125 or 0.0≅kg/ha of a.s. Depending on the species, the plants were kept at 10-25° C. or 20-35° C. The test period extended over 2 to 4 weeks. During this time, the plants were tended, and their response to the individual treatments was evaluated. Evaluation was carried out using a scale from 0 to 100. 100 means no emergence of the plants, or complete destruction of at least the aerial parts, and 0 means no damage, or normal course of growth. The plants used in the greenhouse experiments were from the following species: [table]

Polygonum persicaria = assay: Post-emergence greenhouse experiment, herbicidal activity; conditions: post-emergence rate 0.125 or 0.0≅kg/ha of a.s., scale 0 to 100
From the text: as §1

Chenopodium album = assay: as above; conditions: post-emergence rate 0.125 or 0.0≅kg/ha of a.s., scale 0 to 100
From the text: as §1

Solanum nigrum = assay: as above
From the text: as §1, with “The rate of application for the post-emergence treatment was 0.125 or 0.0≅kg/ha of a.s.” left out, “growth.” for “growth. The plants used in the greenhouse experiments were from the following species: [table]”

Amaranthus retroflexus = assay: as above
From the text: as §1, with “The rate of application for the post-emergence treatment was 0.125 or 0.0≅kg/ha of a.s.” left out, “growth.” for “growth. The plants used in the greenhouse experiments were from the following species: [table]”

Setaria faberii = assay: as above; conditions: for Test plants [damage in %] Setaria faberii: post-emergence
From the text: as §1, with “The rate of application for the post-emergence treatment was 0.125 or 0.0≅kg/ha of a.s.” left out

Echinochloa crus-galli = assay: as above; conditions: for Test plants [damage in %] Echinochloa crus-galli: post-emergence
From the text: as §1, with “The rate of application for the post-emergence treatment was 0.125 or 0.0≅kg/ha of a.s.” left out

[1] = application rate 0.25 g/ha of a.s.
[2] = application rate 0.5 g/ha of a.s.
[3] = greenhouse, post-emergence rate 0.125 or 0.0≅kg/ha of a.s., scale 0 to 100

SMILES: CCN1N=CC(=C(Cl)c2ccc(S(C)(=O)=O)c(C3=NOCC3)c2Cl)C1=O [I.119, cis-4-[Chloro(2-chloro-3-(4,5-dihydroisoxazol-3-yl)-4-methylsulfonylphenyl)methylene]-2-ethyl-2,4-dihydropyrazol-3-one]
- damage of the useful plant maize (Zea mays): 0%
- damage of the plants (Polygonum persicaria): > 98%
- damage of the plants (Chenopodium album): > 98%
- Test plants [damage in %] Solanum nigrum (Solanum nigrum; [1]): 100%
- Test plants [damage in %] Solanum nigrum (Solanum nigrum; [2]): 100%
- Test plants [damage in %] Amaranthus retroflexus (Amaranthus retroflexus; [1]): 100%
- Test plants [damage in %] Amaranthus retroflexus (Amaranthus retroflexus; [2]): 100%
- damage of the plants (Setaria faberii; [3]): > 98%
- Test plants [damage in %] Setaria faberii (Setaria faberii; [1]): 100%
- Test plants [damage in %] Setaria faberii (Setaria faberii; [2]): 100%
- damage of the plants (Echinochloa crus-galli; [3]): > 98%
- Test plants [damage in %] Echinochloa crus-galli (Echinochloa crus-galli; [1]): 100%
- Test plants [damage in %] Echinochloa crus-galli (Echinochloa crus-galli; [2]): 100%
